# Source: the Deep4Chem optical property database
# Values joined by “and” are separate entries in the source; they are usually repeats but may differ in a detail not shown here. Identical values can stand only once.
# Assay: solvent given as SMILES
smiles,measurement,setting,value
C(/C=C/C1=[NH+]c2cccc3cccc1c23)=c1/[nH]c2cccc3cccc1c32,emission maximum,in CO,651 nm
C(=C\c1cc(/C=C/c2ccc(N(c3ccccc3)c3ccccc3)cc2)ncn1)/c1ccc(N(c2ccccc2)c2ccccc2)cc1,emission maximum,in ClCCl,540 nm
CC1=[N+]2C(=C(c3ccc(N4CCOCC4)cc3)c3ccc(C)n3[B-]2(F)F)C=C1,emission maximum,in C1CCCCC1,520 nm
same,emission maximum,in C1CCOC1,695 nm and 528 nm
same,emission maximum,in CC#N,534 nm
same,emission maximum,in CC(=O)C(C)(C)C,530 nm
same,emission maximum,in CC(C)=O,517 nm
same,emission maximum,in CCCCCC,520 nm
same,emission maximum,in CCOC(C)=O,520 nm
same,emission maximum,in CO,521 nm
same,emission maximum,in Cc1ccccc1,524 nm
same,emission maximum,in ClC(Cl)Cl,531 nm
C1=C/C2=C(\c3ccccc3)c3c[nH]c(c3)/C(c3ccccc3)=C3/C=CC(=N3)/C(c3ccccc3)=c3/cc/c([nH]3)=C(\c3ccccc3)C1=N2,emission maximum,in CC(=O)N(C)C,713 nm
C=C(C)C(CN1C(=O)c2cccc3c2c(cc2nc(C)oc23)C1=O)OO (configuration not stated),emission maximum,in CCO,412 nm
COC(=O)C1=C(C(=O)OC)C2(c3ccccc3-c3c(Br)cc(Br)cc32)C2(/C=C/c3ccc(Cl)cc3)c3cc(OC)c(OC)cc3CCN12 (configuration not stated),emission maximum,in ClCCl,520 nm
COCCC1=Cc2nc1ccc1[nH]c(cc1CCOC)c1nc(c(O)cc3[nH]c2cc3CCOC)C(CCOC)=C1,emission maximum,in Cc1ccccc1,688 nm
CCCc1c(C(=O)c2ccc3c4c(cccc24)-c2cccc4c2C3CC=C4)c2ccc3cccc4c5cccc6ccc1c(c65)c2c34 (configuration not stated),emission maximum,in ClCCl,526 nm
COC(=O)C1=C(C(=O)OC)[Se](=O)[C@]23C1=C[C@H](c1ccccc12)c1ccccc13 (some centres not stated),emission maximum,in ClCCl,495 nm
COc1cc2c(cc1OC)C1=C[C@H](c3ccccc3)C3(C(C#N)=C(C#N)N1CC2)c1cc(Br)ccc1-c1ccc(Br)cc13,emission maximum,in ClCCl,403 nm
CCOC(=O)CSc1nc(-c2ccccc2)c(C)c(C#N)c1C#N,emission maximum,in C1COCCO1,414 nm
same,emission maximum,in CC#N,426 nm
same,emission maximum,in CCO,434 nm
same,emission maximum,in CCOC(C)=O,421 nm
same,emission maximum,in ClC(Cl)Cl,435 nm
same,emission maximum,in c1ccccc1,421 nm
C(=C\c1cnccn1)/c1ccc(N(c2ccccc2)c2ccccc2)cc1,emission maximum,in C1CCOC1,487 nm
same,emission maximum,in CC#N,535 nm
same,emission maximum,in CCCCCCC,433 nm
same,emission maximum,in CS(C)=O,537 nm
same,emission maximum,in ClCCl,543 nm
CC[N+](CC)=c1ccc2cc3c(=O)oc4cc5c(cc4c3oc-2c1)CCCN5C,emission maximum,in ClCCl,648 nm
same,emission maximum,in O,658 nm
CCn1c(-c2ccc(-c3ccc(-c4ccc(-c5n(CC)c6cc(C)ccc6[n+]5CC)cc4)cc3)cc2)[n+](CC)c2ccc(C)cc21,emission maximum,in O,397 nm
CCN(CC)c1ccc2cc(/C=C/C3=C4CC/C(=C\c5cc6ccc(N(CC)CC)cc6oc5=O)C4=[O+][B-](F)(F)O3)c(=O)oc2c1,emission maximum,in C1COCCO1,675 nm
same,emission maximum,in CC#N,758 nm
same,emission maximum,in CC(C)=O,734 nm
same,emission maximum,in CCOC(C)=O,693 nm
same,emission maximum,in CN(C)C=O,758 nm
same,emission maximum,in CS(C)=O,780 nm
same,emission maximum,in Cc1ccccc1,658 nm
same,emission maximum,in ClC(Cl)Cl,706 nm
same,emission maximum,in ClCCl,730 nm
CCOC(=O)c1ccccc1-c1c2ccc(=O)cc-2oc2cc(OC(=O)[C@H](CSCc3ccc(C)cc3)NC(=O)OC(C)(C)C)ccc12,emission maximum,in C1CCOC1,518 nm
same,emission maximum,in CC#N,521 nm
same,emission maximum,in CCO,516 nm
same,emission maximum,in CS(C)=O,549 nm
N#Cc1cccc2cc[nH]c12,emission maximum,in C1CCOC1,368 nm
same,emission maximum,in C1COCCO1,367 nm
same,emission maximum,in CC#N,378 nm
same,emission maximum,in CC(C)O,380 nm
same,emission maximum,in CCO,382 nm
same,emission maximum,in CO,387 nm
same,emission maximum,in CS(C)=O,391 nm
same,emission maximum,in O,400 nm
same,emission maximum,in OCC(F)(F)F,391 nm
CC(=C(C#Cc1ccccc1)C#Cc1ccccc1)c1ccc(C(C)=C(C#Cc2ccccc2)C#Cc2ccccc2)cc1,emission maximum,in ClC(Cl)Cl,454 nm
Cc1ccc(-c2ccc(/C=C/c3ccc(N(C)C)cc3)cn2)nc1,emission maximum,in CC#N,532 nm
Clc1ccc(N2c3sc4ccccc4c3Sc3sc4ccccc4c32)cc1,emission maximum,in ClCCl,563 nm
CC(C)(C)c1ccc2c(c1)c1cc(C(C)(C)C)ccc1n2-c1cc(C(=O)c2ccccc2)cc(-n2c3ccc(C(C)(C)C)cc3c3cc(C(C)(C)C)ccc32)c1,emission maximum,in Cc1ccccc1,466.36 nm
same,emission maximum,in c1cc(-c2cccc(-n3c4ccccc4c4ccccc43)c2)cc(-n2c3ccccc3c3ccccc32)c1,470.81 nm
CCCCCCCCn1nnc(-c2ccc(C#Cc3ccc(C#Cc4ccc(-c5nnn(CCCCCCCC)n5)cc4)c4nc5c6ccccc6c6ccccc6c5nc34)cc2)n1,emission maximum,in C1CCOC1,495 nm
same,emission maximum,in Cc1ccccc1,488 nm
same,emission maximum,in ClCCl,502 nm
c1ccc2c(c1)ccc1c3ccccc3ccc21,emission maximum,in ClCCl,366 nm
COc1cc(/C=C/C(=O)O)ccc1O,emission maximum,in O,413 nm
N#Cc1nn(-c2c(Cl)cccc2Cl)nc1N1CCCC1,emission maximum,in CC#N,418 nm
COC(=O)CC1(C(=O)O)Oc2c(c(C(C)=O)c3c(c2C(C)=O)OCO3)O1,emission maximum,in CC#N,547 nm
CC1=C(c2ccc(N(C)C)cc2)C(C)=[N+]2C1=C(c1c(-c3ccccn3)nc3ccccn13)c1c(C)c(-c3ccc(N(C)C)cc3)c(C)n1[B-]2(F)F,emission maximum,in ClCCl,722 nm
Cc1cc2c(o1)c(C)cc1ccc(=O)oc12,emission maximum,in C1CCCCC1,360 nm
same,emission maximum,in C1COCCO1,380 nm
same,emission maximum,in CC#N,435 nm
same,emission maximum,in CCO,460 nm
same,emission maximum,in OCC(F)(F)F,485 nm
CC1=C(C(C)(C)C)C(C)=[N+]2C1=C(C)c1c(C)c(C(C)(C)C)c(C)n1[B-]2(F)F,emission maximum,in C1CCCCC1,571.2 nm
same,emission maximum,in C1CCOC1,566.6 nm
same,emission maximum,in C1COCCO1,565.4 nm
same,emission maximum,in CC#N,560.6 nm
same,emission maximum,in CC(C)=O,563.6 nm
same,emission maximum,in CC(C)CC(C)(C)C,569 nm
same,emission maximum,in CCC(C)C,569 nm
same,emission maximum,in CCCC(C)=O,562.6 nm
same,emission maximum,in CCCCCC,567.8 nm
same,emission maximum,in CCCCCCCCO,565 nm
same,emission maximum,in CCCCCCO,565.4 nm
same,emission maximum,in CCCCO,566.6 nm
same,emission maximum,in CCCCOC(C)=O,564.6 nm
same,emission maximum,in CCCO,564.6 nm
same,emission maximum,in CCO,563.2 nm
same,emission maximum,in CCOC(C)=O,562.4 nm
same,emission maximum,in CCOCC,565.4 nm
same,emission maximum,in CN(C)C=O,565.4 nm
same,emission maximum,in CNC=O,560.6 nm
same,emission maximum,in CO,561.2 nm
same,emission maximum,in COC(C)=O,561.8 nm
same,emission maximum,in OCC(F)(F)F,561.2 nm
COc1ccccc1-c1nc2c([nH]1)C1=CC(=O)S[C@]1(C)[C@@]1(C)SC(=O)C=C21,emission maximum,in CC#N,505 nm
Cc1nn(-c2ccccc2)c2c1c(=O)oc1ccc(-n3c4ccccc4c4ccccc43)cc12,emission maximum,in Cc1ccccc1,412 nm
C(/C=C/c1cc2c3c(c1)CCCN3CCC2)=C\c1ccncc1,emission maximum,in C1COCCO1,518 nm
same,emission maximum,in CC#N,569 nm
same,emission maximum,in CCCCCCC,442 nm
same,emission maximum,in CO,583 nm
COc1cc(OC)cc(-c2ccc(C3=CC(c4ccccc4)=C(c4ccccc4)C3)cc2)c1,emission maximum,in ClCCl,455 nm
Cc1cc(=O)oc2cc(O)ccc12,emission maximum,in CCO,380 nm
F[B-]1(F)OC(c2ccc(Br)cc2)=Cc2c3ccccc3c3ccccc3[n+]21,emission maximum,in ClC(Cl)Cl,449 nm
CN(CCO)c1ccc(/C=C/C2=CC(=C(C#N)C#N)CC(C)(C)C2)cc1,emission maximum,in CC#N,651 nm
same,emission maximum,in CC(C)=O,648 nm
same,emission maximum,in CCCCO,649 nm
same,emission maximum,in ClC(Cl)Cl,612 nm
same,emission maximum,in ClCCl,634 nm
same,emission maximum,in c1ccccc1,588 nm
COc1ccc(-c2cc3c4c(c2)CCc2cc(-c5ccc(OC)cc5)cc(c2-4)CC3)cc1,emission maximum,in C1CCCCC1,386.34 nm
same,emission maximum,in C1CCOC1,390.22 nm
same,emission maximum,in CC#N,388.06 nm
same,emission maximum,in CCCCCC,384.62 nm
same,emission maximum,in CCO,386.99 nm
same,emission maximum,in CN(C)C=O,392.15 nm
same,emission maximum,in CO,386.56 nm
same,emission maximum,in ClC(Cl)Cl,391.46 nm
same,emission maximum,in ClCCl,391.08 nm
Cc1ccc2c(c1)C1(c3ccccc3-c3ccccc31)c1cc(C)ccc1N2c1ccc(-c2ncccn2)cc1,emission maximum,in Cc1ccccc1,461 nm
same,emission maximum,in O=P(c1ccccc1)(c1ccccc1)c1ccc2oc3ccc(P(=O)(c4ccccc4)c4ccccc4)cc3c2c1,466 nm
c1ccc(-c2nc(-c3ccc(-c4nc(-c5ccccc5)c(-c5ccccc5)[nH]4)cc3)[nH]c2-c2ccccc2)cc1,emission maximum,in C1CCOC1,421 nm
same,emission maximum,in CC#N,423.5 nm and 424 nm
same,emission maximum,in CC(=O)O,482 nm
same,emission maximum,in CC(C)=O,420 nm
same,emission maximum,in CCOC(C)=O,420 nm
same,emission maximum,in CCOCC,419 nm
same,emission maximum,in CO,417 nm
same,emission maximum,in CS(C)=O,410 nm
same,emission maximum,in ClC(Cl)Cl,437 nm
c1ccc(N(c2ccccc2)c2ccc(-c3ccc4c(c3)C3(c5cc(-c6ccc(N(c7ccccc7)c7ccccc7)cc6)ccc5O4)c4ccccc4-c4ccccc43)cc2)cc1,emission maximum,in ClCCl,419 nm
same,emission maximum,in c1cc(-n2c3ccccc3c3ccccc32)cc(-n2c3ccccc3c3ccccc32)c1,407 nm
CC(C)(C)c1ccc2c(c1)c1cc(C(C)(C)C)cc3c1n2-c1cc(-c2ccccc2F)cc2c1B3c1cc(C(C)(C)C)cc3c4cc(C(C)(C)C)ccc4n-2c13,emission maximum,in Cc1ccccc1,499.76 nm
c1ccc(-c2c3c(cc4c2-c2ccccc2C4)-c2ccccc2C3)cc1,emission maximum,in C1CCCCC1,364 nm
Cc1c2c(nc3ccccc13)-c1cc3c(cc1CC2)-c1nc2ccccc2c(C)c1CC3,emission maximum,in ClC(Cl)Cl,383 nm
O=C(c1ccccc1)c1ccc(-n2c3ccccc3c3c2c2ccccc2n3-c2ccccc2)cc1,emission maximum,in Cc1ccccc1,520 nm
CN(C)c1ccc(/C=C/c2ccc(-c3nc(C#N)c(C#N)n3C)cc2)cc1,emission maximum,in C1CCCCC1,437 nm
same,emission maximum,in CC#N,530 nm
same,emission maximum,in CO,514 nm
same,emission maximum,in ClC(Cl)Cl,500 nm
CC(C)C[Si](C#Cc1c2c(=O)c3ccccc3c2c(C#C[Si](CC(C)C)(CC(C)C)CC(C)C)c2c(=O)c3ccccc3c12)(CC(C)C)CC(C)C,emission maximum,in ClC(Cl)Cl,567 nm
COOCc1noc(-c2ccccc2)c1Cl,emission maximum,in C1CCCCC1,345 nm
